# Reference: patent US10017556B2, “Insulin receptor partial agonists” (MERCK SHARP & DOHME CORP., priority 2014, dated 2018)
# Test system: lean C57BL/6NTac mice
# Assay: Intraperitoneal Insulin Tolerance Test (IP-ITT)
# Assay type: in vivo
# Conditions: intraperitoneal injection, two doses per compound (Table 16), blood glucose 30 to 360 min after dose
# Experimental: Groups of N=6-8 animals per group were randomized by weight (average about 30 grams). Two days prior to study, the mice were conditioned to dosing with an intraperitoneal injection of 0.9% Sodium Chloride solution at 5 ml/kg dosing volume. On the morning of the study, food was removed two or four hours prior to the study. Blood glucose concentrations were determined at T=0 min (baseline) using a Glucometer. […] Blood glucose levels were determined from tail bleeds taken between 30 to 360 minutes after dose.
substance,measurement,value
"B29,B29′-suberoyl-(insulin)2 [Compound B, reference compound]",glucose profile at low versus high dose in IP-ITT,increasing the dosage of compounds A and B caused an increased glucose lowering potency
